≈ marks a conversion by molar mass, not a printed value.
Tests used:
[1] = test system: new gadolinium-enhancing T1 (T1Gd+) lesions on brain MRI; test: New gadolinium-enhancing T1 (T1Gd+) lesions on brain MRI, Phase II RMS study (primary endpoint); assay type: in vivo, human
Text: (§1) This Phase II study was undertaken to evaluate the effect of fenebrutinib on brain magnetic resonance imaging (MRI) in participants with RMS. Participants were randomized to receive either fenebrutinib or placebo. In addition to MRI evaluations, participants were also monitored for other clinical outcomes of disease, including disability progression and MS relapse, as described more fully below.
(§2) Study Design: This clinical trial comprised a double-blind treatment (DBT) phase, where participants were randomized in a 2:1 ratio to receive either 200 mg BID oral fenebrutinib or non-active placebo, administered for 12 weeks. Participants were directed to self-administer two 100 mg tablets in the morning and two 100 mg tablets in the evening by mouth, for a total dose of 400 mg of fenebrutinib (or placebo) every day.
(§3) A total of 109 adults aged 18-55 with RMS were enrolled in the study: 73 in the fenebrutinib arm, and 36 in the placebo arm. […] Accordingly, the analysis of outcome for the double blind phase of the study included 70 patients in the fenebrutinib arm, and 36 patients in the placebo arm.
MRI Measurements: The primary efficacy endpoint for this study was the total number of new gadolinium-enhancing T1 (T1Gd+) lesions on brain MRI measured at Weeks 4, 8, and 12 of administration. The secondary efficacy outcomes were (1) the total number of new or enlarging T2-weighted lesions on brain MRI measured at Weeks 4, 8, and 12, and (2) the proportion of participants free from any new Gd-enhancing T1 lesions and new or enlarging T2-weighted lesions observed on brain MRI at Weeks 4, 8, and 12. Radiologic evaluation for the primary efficacy parameter was performed using a standardized MRI protocol at screening, and at Weeks 4, 8, and 12 for each participant. […]
Results: Primary Endpoint (Total Number of New T1 Gd+ Lesions at Weeks 4, 8, and 12, combined): The primary endpoint of this study was met. In the treatment arm (n=70), a 69% relative reduction in new T1 Gd+ lesions was observed, compared to placebo, with a p value of 0.0022. FIG. 2 provides bar graphs illustrating some of the data in these tables, and providing additional analyses. In this figure, the large arrows indicate the relative reduction (95% confidence interval) of lesions. The proportion of patients with new T1 Gd+ lesions is the number of participants that have a new lesion at that specific visit alone divided by the number of participants with a scan at that specific visit alone at the indicated week. […] There was a 90% reduction and only 3.2% of patients with new T1 Gd+ Lesions lesions at Week 12.

[2] = test system: CD63 expression on myeloid lineage cells (basophils); settings: in vitro human whole blood assay; previously presented Weber M S, et al. AAN 2021; cited from earlier work
[3] = Safety: adverse events in Phase II RMS study; assay type: in vivo, human; settings: for Patients with ≥1 AE, %: 200 mg BID oral, 12 weeks, placebo 33.3
Procedure: as §2, §3
Results—Safety Summary: A summary of adverse events (AEs) for patients treated with fenebrutinib, and with placebo, is provided in Table 12.

[4] = test system: inflammatory cytokine production from myeloid cells (including TNF-α); settings: in vitro cell-based experiments; cited from earlier work
[5] = test system: new or enlarging T2-weighted lesions on brain MRI; test: New or enlarging T2-weighted lesions on brain MRI, Phase II RMS study (secondary endpoint); assay type: in vivo, human
Text: as §1, §2, §3
MRI Measurements: The primary efficacy endpoint for this study was the total number of new gadolinium-enhancing T1 (T1Gd+) lesions on brain MRI measured at Weeks 4, 8, and 12 of administration. The secondary efficacy outcomes were (1) the total number of new or enlarging T2-weighted lesions on brain MRI measured at Weeks 4, 8, and 12, and (2) the proportion of participants free from any new Gd-enhancing T1 lesions and new or enlarging T2-weighted lesions observed on brain MRI at Weeks 4, 8, and 12. Radiologic evaluation for the primary efficacy parameter was performed using a standardized MRI protocol at screening, and at Weeks 4, 8, and 12 for each participant.
Results: Secondary Endpoint-Total Number of New or Enlarging T2-Weighted Lesions at Weeks 4, 8, and 12 combined: This secondary endpoint was met, and a summary of this secondary endpoint analysis is provided in Table 5. FIG. 3 provides bar graphs illustrating some of the data in these tables and providing additional analyses. In this figure, the large arrows indicate the relative reduction (95% confidence interval) of lesions. The proportion of patients with new/enlarging T2-weighted lesions is the number of participants that have a new lesion at that specific visit alone divided by the number of participants with a scan at that specific visit alone at the indicated week. There was a 95% reduction and only 3.2% of patients with new/enlarging lesions at Week 12.

[6] = Week 12, participants with a new lesion at that visit divided by participants with a scan at that visit
[7] = most common AEs, n = 73, placebo 0
[8] = most common AEs, n = 73, placebo 2.8

SMILES: C[C@H]1CN(C2COC2)CCN1c1ccc(Nc2cc(-c3ccnc(N4CCn5c(cc6c5CC(C)(C)C6)C4=O)c3CO)cn(C)c2=O)nc1 [Fenebrutinib, (S)-2-(3′-(hydroxymethyl)-1-methyl-5-((5-(2-methyl-4-(oxetan-3-yl)piperazin-1-yl)pyridin-2-yl)amino)-6-oxo-1,6-dihydro-[3,4′-bipyridin]-2′-yl)-7,7-dimethyl-2,3,4,6,7,8-hexahydro-1H-cyclopenta[4,5]pyrrolo[1,2-a]pyrazin-1-one]
- Number of New T1 Gd+ Lesions, Mean (SD), Week 4 ([1]; 200 mg BID oral, Week 4, n = 70, min-max 0-4, placebo 0.389 (0.871)): 0.343 (0.849)
- Number of New T1 Gd+ Lesions, Mean (SD), Week 8 ([1]; 200 mg BID oral, Week 8, n = 67, min-max 0-3, placebo 0.441 (0.960)): 0.045 (0.367)
- Number of New T1 Gd+ Lesions, Mean (SD), Week 12 ([1]; 200 mg BID oral, Week 12, n = 63, min-max 0-1, placebo 0.273 (0.674)): 0.032 (0.177)
- Total Number of New T1Gd+ Lesions ([1]; 200 mg BID oral, Weeks 4, 8, and 12 combined, N = 70, 201 scans, placebo 38): 29
- New T1Gd+ Lesion rate, adjusted ([1]; 200 mg BID oral, Weeks 4, 8, and 12 combined, Negative Binomial regression model, placebo 0.245): 0.077
- New T1Gd+ Lesion rate, unadjusted ([1]; 200 mg BID oral, Weeks 4, 8, and 12 combined, total lesions divided by total number of scans, placebo 0.369): 0.144
- proportion of patients with new T1 Gd+ lesions, Week 12 [1, 6]: 3.2%
- patients with new T1 Gd+ lesions after week four ([1]; after week four of treatment): Few patients had new lesions after week four of treatment
- Relative Reduction of total number of new T1 Gd+ lesions, Week 4 ([1]; vs placebo, Week 4, 95% CI −92%, 68%): 22%
- Relative Reduction of total number of new T1 Gd+ lesions, Week 8 ([1]; vs placebo, Week 8, 95% CI 65%, 98%): 92%
- Relative Reduction of total number of new T1 Gd+ lesions, Week 12 ([1]; vs placebo, Week 12, 95% CI 52%, 98%): 90%
- Rate Ratio, adjusted (new T1Gd+ lesions) ([1]; vs placebo, Weeks 4, 8, and 12 combined, 95% CI (0.149, 0.658)): 0.313
- Relative Reduction in new T1 Gd+ lesions ([1]; vs placebo, Weeks 4, 8, and 12 combined, 95% CI (34%, 85%), p-value 0.0022): 69%
- Relative Reduction of total number of new T1 Gd+ lesions, Weeks 8 and 12 ([1]; vs placebo, Weeks 8 and 12): 92%
- IC90, CD63 (myeloid lineage cell activation marker) [2]: 0.0412 µg/mL (≈ 0.062 µM)
- Patients with ≥1 AE, % ([3]; n = 73): 38.4%
- Patients with ≥1 AE, % ([3]; n = 73, listed as FEN): 38%
- withdrawal: abnormal hepatic transaminase levels ([3]; discontinuation required by protocol): 4
- AE grade ([3]; double-blind treatment phase): All AEs were Grade 1 or 2, except for two Grade 3 asymptomatic liver transaminase level elevations
- AEs leading to withdrawal from the study ([3]; double-blind treatment phase): four AEs leading to withdrawal from the study
- serious AEs or deaths ([3]; double-blind treatment phase): No SAEs were reported
- serious AEs or deaths ([3]; double-blind treatment phase, listed as FEN): No serious AEs or deaths were reported
- rate of infections ([3]; fenebrutinib vs placebo arms): balanced between the fenebrutinib and placebo arms
- hepatic transaminase level elevations, character ([3]; fenebrutinib-treated patients): reversible and asymptomatic
- withdrawal: hypersensitivity ([3]; in vivo): 1
- withdrawal: upper abdominal pain ([3]; in vivo): 1
- withdrawal: upper abdominal pain; nausea and headache ([3]; in vivo): 1
- Abnormal hepatic enzyme levels, % [3, 7]: 5.5%
- Nasopharyngitis, % [3, 7]: 2.7%
- Upper abdominal pain, % [3, 7]: 2.7%
- Headache, % [3, 8]: 4.1%
- Nausea, % [3, 8]: 2.7%
- Pharyngitis, % [3, 8]: 2.7%
- Urinary tract infection, % ([3]; most common AEs, n = 73, placebo 5.6): 5.5%
- Patients with ≥1 AE leading to dose interruption, n (%) ([3]; n = 73): 0
- Patients with ≥1 AE with fatal outcome, n (%) ([3]; n = 73): 0
- Patients with ≥1 SAE, n (%) ([3]; n = 73): 0
- Patients with ≥1 Grade 3 AE, % ([3]; n = 73, placebo 0): 2.7%
- Patients withdrawn from study due to an AE, % ([3]; n = 73, placebo 0): 9.6%
- Patients with ≥1 Related AE, % ([3]; n = 73, placebo 5.6): 13.7%
- Total no. of AEs ([3]; n = 73, placebo 19): 40
- inflammatory cytokine production from myeloid cells [4]: reduction of inflammatory cytokine production from myeloid cells
- Number of New or Enlarging T2-Weighted Lesions, Mean (SD), Week 4 ([5]; 200 mg BID oral, Week 4, n = 70, min-max 0-21, placebo 1.222 (2.218)): 1.043 (2.990)
- Number of New or Enlarging T2-Weighted Lesions, Mean (SD), Week 8 ([5]; 200 mg BID oral, Week 8, n = 67, min-max 0-4, placebo 0.824 (1.359)): 0.104 (0.526)
- Number of New or Enlarging T2-Weighted Lesions, Mean (SD), Week 12 ([5]; 200 mg BID oral, Week 12, n = 63, min-max 0-1, placebo 0.545 (1.121)): 0.032 (0.177)
- Total Number of New or Enlarging T2-Weighted Lesions ([5]; 200 mg BID oral, Weeks 4, 8, and 12 combined, N = 70, 201 scans, placebo 90): 82
- New or Enlarging T2-Weighted Lesion rate, adjusted ([5]; 200 mg BID oral, Weeks 4, 8, and 12 combined, placebo 0.634): 0.168
- New or Enlarging T2-Weighted Lesion rate, unadjusted ([5]; 200 mg BID oral, Weeks 4, 8, and 12 combined, placebo 0.874): 0.408
- proportion of patients with new/enlarging T2-weighted lesions, Week 12 [5, 6]: 3.2%
- Relative Reduction of New or Enlarging T2-Weighted Lesions, Week 4 ([5]; vs placebo, Week 4, 95% CI −13%, 77%): 49%
- Relative Reduction of New or Enlarging T2-Weighted Lesions, Week 8 ([5]; vs placebo, Week 8, 95% CI 72%, 96%): 90%
- Relative Reduction of New or Enlarging T2-Weighted Lesions, Week 12 ([5]; vs placebo, Week 12, 95% CI 77%, 99%): 95%
- Rate Ratio, adjusted (new or enlarging T2-weighted lesions) ([5]; vs placebo, Weeks 4, 8, and 12 combined, 95% CI (0.128, 0.550)): 0.265
- Relative Reduction in new or enlarging T2-weighted lesions ([5]; vs placebo, Weeks 4, 8, and 12 combined, 95% CI (45.0%, 87.2%), p-value 0.0004): 73.5%
- Relative Reduction of New or Enlarging T2-Weighted Lesions, Weeks 8 and 12 ([5]; vs placebo, Weeks 8 and 12): 93%

Source: patent publication US20260315462A1, “METHODS OF TREATING RELAPSING MULTIPLE SCLEROSIS USING AN INHIBITOR OF BRUTON'S TYROSINE KINASE” (Genentech, Inc., priority 2023, published 2026)
